According to US20170150719A1, “FUNGICIDAL PYRAZOLES AND THEIR MIXTURES” (E I DU PONT DE NEMOURS AND COMPANY, priority 2010, published 2017):
Marks after values point to notes of the source that are not given here.

Columns and labels:
[1] = tested on: Septoria tritici; test: Test F: wheat leaf blotch, preventive spray on wheat seedlings, visual disease rating; assay type: in vivo; parameters: Test F rating (disease control), value marked *: concentration or dose not given beside the values; settings: for Test F rating (% disease control): preventive spray, rating without asterisk
Text: (§1) A hyphen (-) indicates no test results.

[2] = tested on: Puccinia recondita f. sp. tritici; test: Test G: wheat leaf rust, spray after inoculation (curative) on wheat seedlings, visual disease rating; assay type: in vivo; settings: for Test G rating (% disease control): spray after inoculation, rating without asterisk
Text: as §1

[3] = tested on: Puccinia recondita f. sp. tritici; test: Test H: wheat leaf rust, preventive spray on wheat seedlings, visual disease rating; settings: for Test H rating (disease control): sprayed the day before inoculation; for Test H rating (% disease control): preventive spray, rating without asterisk
[4] = tested on: Botrytis cinerea; test: Test A: tomato Botrytis, preventive spray on tomato seedlings, visual disease rating; settings: for Test A rating (% disease control): preventive spray, 0 = no control relative to controls, rating without asterisk
[5] = tested on: Alternaria solani; test: Test B: tomato early blight, preventive spray on tomato seedlings, visual disease rating; settings: for Test B rating (disease control) / Test B rating (% disease control): 100 = 100% disease control; for Test B rating (disease control): 0 = no disease control relative to the controls; for Test B rating (% disease control): preventive spray, rating without asterisk
[6] = tested on: Blumeria graminis f. sp. tritici; test: Test I: wheat powdery mildew, preventive spray on wheat seedlings, visual disease rating; settings: for Test I rating (% disease control): preventive spray, rating without asterisk
[7] = tested on: Septoria nodorum; test: Test E: Septoria glume blotch, preventive spray on wheat seedlings, visual disease rating; settings: for Test E rating (% disease control): Septoria glume blotch on wheat, preventive spray, rating without asterisk
[8] = 100 = 100% disease control, 0 = no disease control relative to the controls
[9] = sprayed after inoculation, 100 = 100% disease control, 0 = no disease control
[10] = wheat leaf rust, 100 = 100% disease control, 0 = no disease control
[11] = tomato Botrytis, 100 = 100% disease control, 0 = no disease control relative to the controls
[12] = wheat powdery mildew, 100 = 100% disease control, 0 = no disease control relative to the controls
[13] = Septoria glume blotch, 100 = 100% disease control, 0 = no disease control relative to the controls
[14] = wheat leaf rust, 100 = 100% disease control
[15] = tomato Botrytis, 100 = 100% disease control
[16] = wheat powdery mildew, 100 = 100% disease control

## Cc1nn(C)c(Nc2c(Cl)cc(Br)cc2Cl)c1-c1ccc(F)cc1F [compound 155]
[1]; [8]
  Test F rating (disease control): 100%
[2]; [9]
  Test G rating (disease control): 94%
[3]; [10]
  Test H rating (disease control): 97%
[4]; [11]
  Test A rating (disease control): 100%
[5]; tomato early blight
  Test B rating (disease control): 0%
[6]; [12]
  Test I rating (disease control): 99%
[7]; [13]
  Test E rating (disease control): 0%

## Cc1nn(C)c(Nc2ccc(F)cc2Cl)c1-c1ccc(F)cc1F [compound 61]
[1]; [8]
  Test F rating (disease control): 100%
[2]; [9]
  Test G rating (disease control): 0%
[3]; [10]
  Test H rating (disease control): 99%
[4]; [11]
  Test A rating (disease control): 100%
[5]; tomato early blight
  Test B rating (disease control): 93%
[6]; [12]
  Test I rating (disease control): 100%
[7]; [13]
  Test E rating (disease control): 64%

## Cc1nn(C)c(Oc2ccc(Cl)cc2F)c1-c1ccc(F)cc1Cl [compound 158]
[1]; rating marked with asterisk (*), other test condition, not explained in the text shown
  Test F rating (disease control), value marked *: 99* %
[2]; sprayed after inoculation, rating marked with asterisk (*), not explained in the text shown
  Test G rating (disease control), value marked *: 37* %
[3]; wheat leaf rust, preventive, rating marked with asterisk (*), not explained in the text shown
  Test H rating (disease control), value marked *: 98* %
[4]; tomato Botrytis, rating marked with asterisk (*), other test condition, not explained in the text shown
  Test A rating (disease control), value marked *: 100* %
[5]; tomato early blight, rating marked with asterisk (*), other test condition, not explained in the text shown
  Test B rating (disease control), value marked *: 80* %
[6]; wheat powdery mildew, rating marked with asterisk (*), not explained in the text shown
  Test I rating (disease control), value marked *: 96* %
[7]; Septoria glume blotch, rating marked with asterisk (*), other test condition, not explained in the text shown
  Test E rating (disease control), value marked *: 0* %

## COc1ccc(-c2c(C)nn(C)c2Nc2c(F)cc(I)cc2F)c(Cl)c1 [compound 220]
[1]; 100 = 100% disease control
  Test F rating (% disease control): 100%
[2]; 100 = 100% disease control
  Test G rating (% disease control): 0%
[3]; [14]
  Test H rating (% disease control): 97%
[4]; [15]
  Test A rating (% disease control): 100%
[5]; tomato early blight
  Test B rating (% disease control): 69%
[6]; [16]
  Test I rating (% disease control): 96%
[7]; 100 = 100% disease control
  Test E rating (% disease control): 73%

## CCOc1ccc(-c2c(C)nn(C)c2Nc2ccc(F)cc2F)c(Cl)c1 [compound 209]
[1]; 100 = 100% disease control
  Test F rating (% disease control): 100%
[2]; 100 = 100% disease control
  Test G rating (% disease control): 0%
[3]; [14]
  Test H rating (% disease control): 92%
[4]; [15]
  Test A rating (% disease control): 98%
[5]; tomato early blight
  Test B rating (% disease control): 95%
[6]; [16]
  Test I rating (% disease control): 100%
[7]; 100 = 100% disease control
  Test E rating (% disease control): 0%

## Cc1nn(C)c(Nc2ccc(F)cc2Cl)c1-c1c(Cl)cccc1Cl [compound 109]
[1]; [8]
  Test F rating (disease control): 100%
[2]; [9]
  Test G rating (disease control): 0%
[3]; [10]
  Test H rating (disease control): 97%
[4]; [11]
  Test A rating (disease control): 100%
[5]; tomato early blight
  Test B rating (disease control): 0%
[6]; [12]
  Test I rating (disease control): 100%
[7]; [13]
  Test E rating (disease control): 0%

## Cc1nn(C)c(Nc2ccc(F)cc2F)c1-c1c(Cl)cccc1Cl [compound 113]
[1]; [8]
  Test F rating (disease control): 100%
[2]; [9]
  Test G rating (disease control): 0%
[3]; [10]
  Test H rating (disease control): 98%
[4]; [11]
  Test A rating (disease control): 100%
[5]; tomato early blight
  Test B rating (disease control): 0%
[6]; [12]
  Test I rating (disease control): 100%
[7]; [13]
  Test E rating (disease control): 0%

## Cc1nn(C)c(Nc2c(F)cc(Cl)cc2Cl)c1-c1ccc(F)cc1I [compound 222]
[1]; 100 = 100% disease control
  Test F rating (% disease control): 100%
[2]; 100 = 100% disease control
  Test G rating (% disease control): 0%
[3]; [14]
  Test H rating (% disease control): 90%
[4]; [15]
  Test A rating (% disease control): 98%
[5]; tomato early blight
  Test B rating (% disease control): 77%
[6]; [16]
  Test I rating (% disease control): 96%
[7]; 100 = 100% disease control
  Test E rating (% disease control): 0%

## Cc1nn(C)c(Nc2ccc(F)cc2Br)c1-c1ccc(F)cc1Br [compound 95]
[1]; [8]
  Test F rating (disease control): 100%
[2]; [9]
  Test G rating (disease control): 91%
[3]; [10]
  Test H rating (disease control): 100%
[4]; [11]
  Test A rating (disease control): 100%
[5]; tomato early blight
  Test B rating (disease control): 97%
[6]; [12]
  Test I rating (disease control): 100%
[7]; [13]
  Test E rating (disease control): 51%

## Cc1nn(C)c(Nc2c(F)cc(F)cc2Br)c1-c1ccc(Cl)cc1F [compound 229]
[1]; 100 = 100% disease control
  Test F rating (% disease control): 100%
[2]; 100 = 100% disease control
  Test G rating (% disease control): 9%
[3]; [14]
  Test H rating (% disease control): 97%
[4]; [15]
  Test A rating (% disease control): 99%
[5]; tomato early blight
  Test B rating (% disease control): 99%
[6]; [16]
  Test I rating (% disease control): 98%
[7]; 100 = 100% disease control
  Test E rating (% disease control): 64%

## CCOc1cc(F)c(-c2c(C)nn(C)c2Nc2ccc(F)cc2F)c(F)c1 [compound 39]
[1]; [8]
  Test F rating (disease control): 100%
[2]; [9]
  Test G rating (disease control): 0%
[3]; [10]
  Test H rating (disease control): 99%
[4]; [11]
  Test A rating (disease control): 99%
[5]; tomato early blight
  Test B rating (disease control): 99%
[6]; [12]
  Test I rating (disease control): 100%
[7]; [13]
  Test E rating (disease control): 98%

## Cc1nn(C)c(Nc2c(F)cc(Br)cc2Br)c1-c1ccc(F)cc1I [compound 223]
[1]; 100 = 100% disease control
  Test F rating (% disease control): 100%
[2]; 100 = 100% disease control
  Test G rating (% disease control): 0%
[3]; [14]
  Test H rating (% disease control): 97%
[4]; [15]
  Test A rating (% disease control): 98%
[5]; tomato early blight
  Test B rating (% disease control): 88%
[6]; [16]
  Test I rating (% disease control): 99%
[7]; 100 = 100% disease control
  Test E rating (% disease control): 0%

## COc1ccc(-c2c(C)nn(C)c2Oc2ccc(C#N)cc2F)c(Cl)c1 [compound 92]
[1]; [8]
  Test F rating (disease control): 100%
[2]; [9]
  Test G rating (disease control): 0%
[3]; [10]
  Test H rating (disease control): 99%
[4]; [11]
  Test A rating (disease control): 100%
[5]; tomato early blight
  Test B rating (disease control): 99%
[6]; [12]
  Test I rating (disease control): 96%
[7]; [13]
  Test E rating (disease control): 99%

## Cc1nn(C)c(Nc2ccc(F)cc2Cl)c1-c1ccc(Cl)cc1Cl [compound 125]
[1]; [8]
  Test F rating (disease control): 100%
[2]; [9]
  Test G rating (disease control): 82%
[3]; [10]
  Test H rating (disease control): 98%
[4]; [11]
  Test A rating (disease control): 99%
[5]; tomato early blight
  Test B rating (disease control): 0%
[6]; [12]
  Test I rating (disease control): 100%
[7]; [13]
  Test E rating (disease control): 0%

## Cc1nn(C)c(Oc2ccc(C#N)cc2Cl)c1-c1ccc(Cl)cc1Cl [compound 131]
[1]; [8]
  Test F rating (disease control): 100%
[2]; [9]
  Test G rating (disease control): 0%
[3]; [10]
  Test H rating (disease control): 96%
[4]; [11]
  Test A rating (disease control): 100%
[5]; tomato early blight
  Test B rating (disease control): 0%
[6]; [12]
  Test I rating (disease control): 96%
[7]; [13]
  Test E rating (disease control): 0%

## Cc1nn(C)c(Nc2c(F)cc(Br)cc2F)c1-c1ccc(F)cc1F [Compound 133, N-(4-bromo-2,6-difluorophenyl)-4-(2,4-difluorophenyl)-1,3-dimethyl-1H-pyrazol-5-amine]
[1]; Zymoseptoria tritici, 100 = 100% disease control, 0 = no disease control relative to the controls
  pest or weed control at 200 µg/mL: 100%
[2]; [9]
  pest or weed control at 200 µg/mL: 0%
[3]; read-out: Test H rating (disease control), wheat leaf rust, sprayed the day before inoculation, 100 = 100% disease control, 0 = no disease control
  pest or weed control at 200 µg/mL: 99%
[4]; Botrytis cinerea, in Solanum lycopersicum, read-out: Test A rating (disease control), tomato Botrytis, 100 = 100% disease control, 0 = no disease control relative to the controls
  pest or weed control at 200 µg/mL: 99%
[5]; Alternaria solani, in Solanum lycopersicum, read-out: Test B rating (disease control)
  pest or weed control at 200 µg/mL: 97%
[6]; Blumeria graminis, in Triticum aestivum, read-out: Test I rating (disease control), wheat powdery mildew, 100 = 100% disease control, 0 = no disease control relative to the controls
  pest or weed control at 200 µg/mL: 100%
[7]; Parastagonospora nodorum, in Triticum aestivum, read-out: Test E rating (disease control), Septoria glume blotch, 100 = 100% disease control, 0 = no disease control relative to the controls
  pest or weed control at 200 µg/mL: 88%

## CCOc1ccc(-c2c(C)nn(C)c2Nc2c(Cl)cc(F)cc2Cl)c(Cl)c1 [compound 208]
[1]; 100 = 100% disease control
  Test F rating (% disease control): 99%
[2]; 100 = 100% disease control
  Test G rating (% disease control): 0%
[3]; [14]
  Test H rating (% disease control): 85%
[4]; [15]
  Test A rating (% disease control): 18%
[5]; tomato early blight
  Test B rating (% disease control): 0%
[6]; [16]
  Test I rating (% disease control): 27%
[7]; 100 = 100% disease control
  Test E rating (% disease control): 0%
